The source of these data is ChEMBL document CHEMBL3397009, “Synthesis and biological evaluation of aryl isoxazole derivatives as metabotropic glutamate receptor 1 antagonists: a potential treatment for neuropathic pain” (Bioorg Med Chem Lett, 2015).

Calls of active or inactive are those of the source.

CYP3A4, sequence (P08684 whole entry): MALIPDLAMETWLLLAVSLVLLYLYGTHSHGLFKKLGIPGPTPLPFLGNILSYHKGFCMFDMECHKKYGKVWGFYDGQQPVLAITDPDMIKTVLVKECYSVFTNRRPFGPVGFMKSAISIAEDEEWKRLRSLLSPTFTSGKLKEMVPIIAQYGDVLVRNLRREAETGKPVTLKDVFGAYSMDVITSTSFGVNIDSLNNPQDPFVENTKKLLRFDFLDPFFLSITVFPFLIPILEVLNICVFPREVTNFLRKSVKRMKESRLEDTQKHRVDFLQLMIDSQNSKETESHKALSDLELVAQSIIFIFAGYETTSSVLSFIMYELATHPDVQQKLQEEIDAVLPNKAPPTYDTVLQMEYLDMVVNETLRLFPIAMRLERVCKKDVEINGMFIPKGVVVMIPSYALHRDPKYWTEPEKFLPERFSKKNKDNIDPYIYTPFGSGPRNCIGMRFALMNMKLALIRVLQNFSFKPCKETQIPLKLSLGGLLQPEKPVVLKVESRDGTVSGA

For one data set, the target named is CYP2C19 (Homo sapiens, UniProt P33261). Nature of the data set: Inhibition of CYP2C19 (unknown origin) assessed as remaining enzyme activity at 10 uM. It is filed as ADME. Particulars: read-out: Activity.
CYP2C19, sequence (P33261 whole entry): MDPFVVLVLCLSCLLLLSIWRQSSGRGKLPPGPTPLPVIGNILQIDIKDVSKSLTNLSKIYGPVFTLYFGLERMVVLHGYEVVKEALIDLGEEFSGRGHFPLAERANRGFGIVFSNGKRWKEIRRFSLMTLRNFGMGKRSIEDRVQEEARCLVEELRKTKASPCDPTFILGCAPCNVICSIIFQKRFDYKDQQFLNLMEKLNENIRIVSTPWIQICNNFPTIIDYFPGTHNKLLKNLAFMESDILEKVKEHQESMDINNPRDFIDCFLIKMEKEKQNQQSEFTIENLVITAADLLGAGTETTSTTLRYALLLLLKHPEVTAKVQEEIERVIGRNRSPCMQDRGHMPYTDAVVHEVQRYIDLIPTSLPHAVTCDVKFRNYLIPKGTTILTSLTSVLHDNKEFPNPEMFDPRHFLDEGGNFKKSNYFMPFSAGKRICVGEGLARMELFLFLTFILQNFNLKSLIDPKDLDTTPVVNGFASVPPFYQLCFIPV
For `COc1ccc(-c2cc(-c3ccc4c(c3)CN(C(C)C)C4=O)on2)cn1`, the activity at 10 µM came out at 85.9%.
Same read-out and setting: then `CC(C)N1Cc2cc(-c3cc(-c4ccc(Cl)nc4)no3)ccc2C1=O`, with 56.6%; and `Cc1c(-c2ccc(F)cc2F)noc1-c1ccc2c(c1)CN(C(C)C)C2=O`, with 59.2%; and `CC(C)N1C(=O)c2ccc(-c3cc(-c4ccccc4F)no3)cc21`, with 33.2%.
Still for that read-out and setting: then `CC(C)N1Cc2cc(-c3cc(-c4ccccc4F)no3)ccc2C1=O`, with 58.4%.

A further data set concerns Rattus norvegicus. Briefly: Analgesic activity in rat model of spinal nerve ligation-induced neuropathic pain assessed as reduction in mechanical threshold for paw withdrawal at 100 mg/kg, po administered on day 14 after ligation surgery and measured 3 hrs post dose by Von Frey filaments based method. It is filed as functional, organism-based. Further details: dose 100 mg/kg.
Conditions: not given
For the molecule `COc1ccc(-c2cc(-c3ccc4c(c3)CN(C(C)C)C4=O)on2)cn1`, the Activity result was “Active”.
On the same count and under the same terms, with `CC(C)N1Cc2cc(-c3cc(-c4ccc(Cl)nc4)no3)ccc2C1=O` the entry was “Active”; with `NCC1(CC(=O)O)CCCCC1`, “Active”.
On the same count and under the same terms, then `Cc1c(-c2ccc3c(c2)CN(C(C)C)C3=O)nnn1-c1ccc(F)cc1F`, with “Active”; and `CC(C)N1C(=O)c2ccc(-c3cc(-c4ccccc4F)no3)cc21`, with “inactive”.

Another data set relates to Rattus norvegicus. Briefly: Analgesic activity in rat model of spinal nerve ligation-induced neuropathic pain assessed as reduction in cold allodynia by measuring paw withdrawal in response to acetone application at 100 mg/kg, po administered on day 14 after ligation surgery and measured 3 hrs post dose. It is filed as functional, organism-based. Further details: dose 100 mg/kg.
Conditions: not given
As to `COc1ccc(-c2cc(-c3ccc4c(c3)CN(C(C)C)C4=O)on2)cn1`, the Activity entry is “Active”.
Consider `CC(C)N1Cc2cc(-c3cc(-c4ccc(Cl)nc4)no3)ccc2C1=O`, for which the Activity entry is “Active”.
On to `NCC1(CC(=O)O)CCCCC1`, for which the Activity entry is “Active”.
On the same count and under the same terms, then `Cc1c(-c2ccc3c(c2)CN(C(C)C)C3=O)nnn1-c1ccc(F)cc1F`, with “Active”; and `CC(C)N1C(=O)c2ccc(-c3cc(-c4ccccc4F)no3)cc21`, with “inactive”.

For another data set, the target named is Metabotropic glutamate receptor 1 (Homo sapiens) (UniProt Q13255). Nature of the data set: Antagonist activity against human mGluR1 expressed in HEK cells assessed as inhibition of L-glutamate-induced intracellular calcium levels at 1 uM after 18 hrs. It is filed as functional, cell-based. Particulars: HEK293.
Metabotropic glutamate receptor 1 (Homo sapiens), sequence (Q13255 19-1194 limits assumed): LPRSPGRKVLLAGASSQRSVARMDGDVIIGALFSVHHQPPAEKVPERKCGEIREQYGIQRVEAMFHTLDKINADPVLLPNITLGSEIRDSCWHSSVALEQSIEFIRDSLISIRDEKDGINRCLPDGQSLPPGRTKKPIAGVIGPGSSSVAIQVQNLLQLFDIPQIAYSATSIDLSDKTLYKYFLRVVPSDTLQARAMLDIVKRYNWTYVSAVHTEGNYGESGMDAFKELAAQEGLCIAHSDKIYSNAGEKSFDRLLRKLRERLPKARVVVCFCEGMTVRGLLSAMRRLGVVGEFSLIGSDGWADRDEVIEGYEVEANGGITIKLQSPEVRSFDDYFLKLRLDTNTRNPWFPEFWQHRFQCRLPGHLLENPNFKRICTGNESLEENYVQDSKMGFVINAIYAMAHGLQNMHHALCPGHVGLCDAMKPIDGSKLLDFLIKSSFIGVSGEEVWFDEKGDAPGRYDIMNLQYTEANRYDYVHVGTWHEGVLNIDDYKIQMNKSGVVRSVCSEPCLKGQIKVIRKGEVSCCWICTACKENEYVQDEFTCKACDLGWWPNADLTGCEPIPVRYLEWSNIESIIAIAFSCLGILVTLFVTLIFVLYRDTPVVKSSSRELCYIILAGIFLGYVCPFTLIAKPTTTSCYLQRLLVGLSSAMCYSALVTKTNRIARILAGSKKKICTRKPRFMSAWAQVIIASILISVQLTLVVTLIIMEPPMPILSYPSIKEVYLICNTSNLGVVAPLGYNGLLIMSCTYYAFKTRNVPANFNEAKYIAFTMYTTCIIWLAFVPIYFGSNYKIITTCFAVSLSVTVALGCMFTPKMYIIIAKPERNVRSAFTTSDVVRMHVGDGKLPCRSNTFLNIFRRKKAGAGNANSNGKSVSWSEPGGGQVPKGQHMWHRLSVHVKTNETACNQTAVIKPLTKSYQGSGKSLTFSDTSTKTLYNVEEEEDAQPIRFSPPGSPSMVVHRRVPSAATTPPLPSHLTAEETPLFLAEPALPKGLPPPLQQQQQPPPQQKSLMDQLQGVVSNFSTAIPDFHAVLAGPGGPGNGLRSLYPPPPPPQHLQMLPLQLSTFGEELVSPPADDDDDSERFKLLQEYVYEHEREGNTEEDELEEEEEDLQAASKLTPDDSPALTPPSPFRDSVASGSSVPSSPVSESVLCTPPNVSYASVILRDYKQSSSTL
For `COc1ccc(-c2cc(-c3ccc4c(c3)CN(C(C)C)C4=O)on2)cn1`, the inhibition (commonly the change of the read-out against control, counted positive when it falls) was 16.6%.
Still for that read-out and setting: then `CC(C)N1Cc2cc(-c3cc(-c4ccc(Cl)nc4)no3)ccc2C1=O`, with 45.4%; and `Cc1c(-c2ccc(F)cc2F)noc1-c1ccc2c(c1)CN(C(C)C)C2=O`, with 31.9%; and `Cc1c(-c2ccc(Cl)cc2)noc1-c1ccc2c(c1)N(C(C)C)C2=O`, with 20.3%.
Same read-out and setting: with `CC(C)N1C(=O)c2ccc(-c3cc(-c4ccc(F)cc4F)no3)cc21` the figure was 11.7%; with `Cc1ccc(-c2cc(-c3ccc4c(c3)CN(C(C)C)C4=O)on2)cn1`, 4.53%.
Consider `COc1ccc(-c2noc(-c3ccc4c(c3)N(C(C)C)C4=O)c2C)cc1`, for which the inhibition was 9.68%.
Same read-out and setting: then `Cc1c(-c2ccc3c(c2)CN(C(C)C)C3=O)nnn1-c1ccc(F)cc1F`, with 92.5%.
Turning to `CC(C)N1C(=O)c2ccc(-c3cc(-c4ccccc4F)no3)cc21`, the inhibition came to 68%.
On the same count and under the same terms, then `CC(C)N1Cc2cc(-c3cc(-c4ccccc4F)no3)ccc2C1=O`, with 56.3%.

Another data set concerns the target CYP3A4 (Homo sapiens, UniProt P08684). Nature of the data set: Inhibition of CYP3A4 (unknown origin) assessed as remaining enzyme activity at 10 uM. It is filed as ADME. Particulars: read-out: Activity.
In the case of `COc1ccc(-c2cc(-c3ccc4c(c3)CN(C(C)C)C4=O)on2)cn1`, the activity at 10 µM was 95.6%.
On the same count and under the same terms, with `CC(C)N1Cc2cc(-c3cc(-c4ccc(Cl)nc4)no3)ccc2C1=O` the figure was 94.5%; with `Cc1c(-c2ccc(F)cc2F)noc1-c1ccc2c(c1)CN(C(C)C)C2=O`, 98%.
Same read-out and setting: then `CC(C)N1C(=O)c2ccc(-c3cc(-c4ccccc4F)no3)cc21`, with 120%; and `CC(C)N1Cc2cc(-c3cc(-c4ccccc4F)no3)ccc2C1=O`, with 107%.

Another data set deals with Metabotropic glutamate receptor 1 (Homo sapiens) (UniProt Q13255). Nature of the data set: Antagonist activity against human mGluR1 expressed in HEK cells assessed as inhibition of L-glutamate-induced intracellular calcium levels at 10 uM after 18 hrs. It is filed as functional, cell-based. Particulars: HEK293. Background: Calcium assays in cells follow changes in intracellular calcium, usually with a dye or a luminescent sensor.
Turning to `COc1ccc(-c2cc(-c3ccc4c(c3)CN(C(C)C)C4=O)on2)cn1`, the inhibition worked out at 59.6%.
Still for that read-out and setting: with `CC(C)N1Cc2cc(-c3cc(-c4ccc(Cl)nc4)no3)ccc2C1=O` the figure was 47.1%; with `Cc1c(-c2ccc(F)cc2F)noc1-c1ccc2c(c1)CN(C(C)C)C2=O`, 87.6%; with `Cc1c(-c2ccc(Cl)cc2)noc1-c1ccc2c(c1)N(C(C)C)C2=O`, 49.1%.
The same measure, in the same setting: then `CC(C)N1C(=O)c2ccc(-c3cc(-c4ccc(F)cc4F)no3)cc21`, with 17.3%; and `Cc1ccc(-c2cc(-c3ccc4c(c3)CN(C(C)C)C4=O)on2)cn1`, with 62.6%; and `COc1ccc(-c2noc(-c3ccc4c(c3)N(C(C)C)C4=O)c2C)cc1`, with 13.7%.
Still for that read-out and setting: then `Cc1c(-c2ccc3c(c2)CN(C(C)C)C3=O)nnn1-c1ccc(F)cc1F`, with 93.1%.
In the case of `CC(C)N1C(=O)c2ccc(-c3cc(-c4ccccc4F)no3)cc21`, the inhibition amounted to 91.1%.
Still for that read-out and setting: then `CC(C)N1Cc2cc(-c3cc(-c4ccccc4F)no3)ccc2C1=O`, with 88.6%.

For the next data set, the target named is CYP2C9 (Homo sapiens, UniProt P11712). Briefly: Inhibition of CYP2C9 (unknown origin) assessed as remaining enzyme activity at 10 uM. It is filed as ADME. Particulars: read-out: Activity.
CYP2C9, sequence (P11712 whole entry): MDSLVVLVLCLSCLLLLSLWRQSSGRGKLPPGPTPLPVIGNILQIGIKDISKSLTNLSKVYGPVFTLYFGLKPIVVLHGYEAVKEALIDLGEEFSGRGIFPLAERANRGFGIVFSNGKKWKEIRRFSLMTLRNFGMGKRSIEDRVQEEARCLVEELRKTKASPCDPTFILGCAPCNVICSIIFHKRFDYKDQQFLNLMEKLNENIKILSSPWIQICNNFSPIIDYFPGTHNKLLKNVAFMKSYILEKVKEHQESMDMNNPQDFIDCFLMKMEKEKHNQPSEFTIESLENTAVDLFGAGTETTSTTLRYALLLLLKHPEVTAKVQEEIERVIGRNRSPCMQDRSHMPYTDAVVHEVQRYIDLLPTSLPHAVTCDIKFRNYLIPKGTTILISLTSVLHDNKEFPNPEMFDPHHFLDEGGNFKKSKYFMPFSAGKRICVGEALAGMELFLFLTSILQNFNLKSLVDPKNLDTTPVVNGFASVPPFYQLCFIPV
`COc1ccc(-c2cc(-c3ccc4c(c3)CN(C(C)C)C4=O)on2)cn1`: the activity at 10 µM is 91.8%.
Same read-out and setting: with `CC(C)N1Cc2cc(-c3cc(-c4ccc(Cl)nc4)no3)ccc2C1=O` the figure was 104%; with `Cc1c(-c2ccc(F)cc2F)noc1-c1ccc2c(c1)CN(C(C)C)C2=O`, 2.55%.
Take `CC(C)N1C(=O)c2ccc(-c3cc(-c4ccccc4F)no3)cc21`: the activity at 10 µM was 32%.
As to `CC(C)N1Cc2cc(-c3cc(-c4ccccc4F)no3)ccc2C1=O`, the activity at 10 µM worked out at 39.8%.

The target of another data set is CYP2D6 (Homo sapiens, UniProt P10635). Briefly: Inhibition of CYP2D6 (unknown origin) assessed as remaining enzyme activity at 10 uM. It is filed as ADME. Particulars: read-out: Activity.
CYP2D6, sequence (P10635 whole entry): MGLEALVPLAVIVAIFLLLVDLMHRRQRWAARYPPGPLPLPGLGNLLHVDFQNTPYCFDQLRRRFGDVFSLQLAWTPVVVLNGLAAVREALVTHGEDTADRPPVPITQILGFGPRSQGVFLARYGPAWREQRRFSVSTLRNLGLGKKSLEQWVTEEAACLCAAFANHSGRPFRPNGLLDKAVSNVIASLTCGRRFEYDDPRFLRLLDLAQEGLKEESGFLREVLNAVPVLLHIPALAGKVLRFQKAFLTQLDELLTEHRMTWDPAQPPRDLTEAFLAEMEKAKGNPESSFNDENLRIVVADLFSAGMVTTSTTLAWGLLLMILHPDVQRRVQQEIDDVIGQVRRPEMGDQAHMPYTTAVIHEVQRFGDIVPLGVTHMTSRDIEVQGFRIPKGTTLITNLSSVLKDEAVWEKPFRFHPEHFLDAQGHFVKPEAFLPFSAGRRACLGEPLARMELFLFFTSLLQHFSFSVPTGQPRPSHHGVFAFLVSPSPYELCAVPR
Turning to `COc1ccc(-c2cc(-c3ccc4c(c3)CN(C(C)C)C4=O)on2)cn1`, the activity at 10 µM was 87.5%.
Still for that read-out and setting: with `CC(C)N1Cc2cc(-c3cc(-c4ccc(Cl)nc4)no3)ccc2C1=O` the figure was 91.3%.
Same read-out and setting: with `Cc1c(-c2ccc(F)cc2F)noc1-c1ccc2c(c1)CN(C(C)C)C2=O` the figure was 104%; with `CC(C)N1C(=O)c2ccc(-c3cc(-c4ccccc4F)no3)cc21`, 57.1%.
On to `CC(C)N1Cc2cc(-c3cc(-c4ccccc4F)no3)ccc2C1=O`, for which the activity at 10 µM was determined as 45.8%.

The target in a further data set is Voltage-gated inwardly rectifying potassium channel KCNH2 (Homo sapiens, UniProt Q12809). Briefly: Inhibition of human ERG.
Conditions: not given
Take `COc1ccc(-c2cc(-c3ccc4c(c3)CN(C(C)C)C4=O)on2)cn1`: it took 12 µM to reach half-maximal inhibition (IC50).
On the same count and under the same terms, with `CC(C)N1Cc2cc(-c3cc(-c4ccc(Cl)nc4)no3)ccc2C1=O` the figure was 40 µM.

The target in a further data set is Metabotropic glutamate receptor 5 (Homo sapiens) (UniProt P41594). Briefly: Antagonist activity against human mGluR5 expressed in HEK cells assessed as inhibition of L-glutamate-induced intracellular calcium levels at 10 uM after 18 hrs. It is filed as functional, cell-based. Particulars: HEK293.
Metabotropic glutamate receptor 5 (Homo sapiens), sequence (P41594 21-1212 limits assumed): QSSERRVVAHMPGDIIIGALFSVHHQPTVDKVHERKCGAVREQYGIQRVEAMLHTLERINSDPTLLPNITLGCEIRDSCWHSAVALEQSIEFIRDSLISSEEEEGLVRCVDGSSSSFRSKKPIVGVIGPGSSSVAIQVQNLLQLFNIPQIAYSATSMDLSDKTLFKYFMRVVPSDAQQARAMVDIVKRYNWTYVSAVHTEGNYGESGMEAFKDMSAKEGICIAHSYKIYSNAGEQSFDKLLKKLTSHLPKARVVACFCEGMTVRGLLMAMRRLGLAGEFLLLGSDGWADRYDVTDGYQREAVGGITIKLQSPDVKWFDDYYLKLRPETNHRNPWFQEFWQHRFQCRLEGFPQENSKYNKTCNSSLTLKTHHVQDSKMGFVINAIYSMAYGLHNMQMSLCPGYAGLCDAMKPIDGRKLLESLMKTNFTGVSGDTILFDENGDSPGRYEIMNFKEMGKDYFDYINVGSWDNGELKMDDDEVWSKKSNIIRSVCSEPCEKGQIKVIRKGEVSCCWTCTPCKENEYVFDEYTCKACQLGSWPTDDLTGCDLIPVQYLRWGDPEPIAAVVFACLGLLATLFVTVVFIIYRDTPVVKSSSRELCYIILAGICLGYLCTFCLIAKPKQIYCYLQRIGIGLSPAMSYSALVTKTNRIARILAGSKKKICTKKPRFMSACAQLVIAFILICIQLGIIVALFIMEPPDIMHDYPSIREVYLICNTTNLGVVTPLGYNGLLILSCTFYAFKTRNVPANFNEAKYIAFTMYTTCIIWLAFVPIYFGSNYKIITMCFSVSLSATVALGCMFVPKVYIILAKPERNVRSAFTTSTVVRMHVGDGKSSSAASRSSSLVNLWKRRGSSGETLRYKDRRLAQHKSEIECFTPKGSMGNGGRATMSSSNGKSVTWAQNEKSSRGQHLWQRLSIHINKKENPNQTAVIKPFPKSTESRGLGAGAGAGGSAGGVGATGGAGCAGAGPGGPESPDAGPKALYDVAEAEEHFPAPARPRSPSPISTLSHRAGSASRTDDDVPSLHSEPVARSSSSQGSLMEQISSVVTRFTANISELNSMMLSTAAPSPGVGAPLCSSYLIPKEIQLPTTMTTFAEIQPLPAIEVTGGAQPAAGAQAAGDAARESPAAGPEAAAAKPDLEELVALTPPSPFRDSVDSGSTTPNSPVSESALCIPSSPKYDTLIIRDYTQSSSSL
Take `COc1ccc(-c2cc(-c3ccc4c(c3)CN(C(C)C)C4=O)on2)cn1`: the inhibition was 29.2%.
Still for that read-out and setting: with `CC(C)N1Cc2cc(-c3cc(-c4ccc(Cl)nc4)no3)ccc2C1=O` the figure was 36.5%.
`Cc1c(-c2ccc(F)cc2F)noc1-c1ccc2c(c1)CN(C(C)C)C2=O`: the inhibition was determined as 26.3%.
The same measure, in the same setting: with `Cc1c(-c2ccc(Cl)cc2)noc1-c1ccc2c(c1)N(C(C)C)C2=O` the figure was 28.7%; with `Cc1ccc(-c2cc(-c3ccc4c(c3)CN(C(C)C)C4=O)on2)cn1`, 34.4%.
Same read-out and setting: then `CC(C)N1C(=O)c2ccc(-c3cc(-c4ccccc4F)no3)cc21`, with 18.3%.
On the same count and under the same terms, then `CC(C)N1Cc2cc(-c3cc(-c4ccccc4F)no3)ccc2C1=O`, with 22.5%.

A further data set has as its target T1, CYP1A2 (Homo sapiens, UniProt P05177).
T1 sequence (P05177 whole entry): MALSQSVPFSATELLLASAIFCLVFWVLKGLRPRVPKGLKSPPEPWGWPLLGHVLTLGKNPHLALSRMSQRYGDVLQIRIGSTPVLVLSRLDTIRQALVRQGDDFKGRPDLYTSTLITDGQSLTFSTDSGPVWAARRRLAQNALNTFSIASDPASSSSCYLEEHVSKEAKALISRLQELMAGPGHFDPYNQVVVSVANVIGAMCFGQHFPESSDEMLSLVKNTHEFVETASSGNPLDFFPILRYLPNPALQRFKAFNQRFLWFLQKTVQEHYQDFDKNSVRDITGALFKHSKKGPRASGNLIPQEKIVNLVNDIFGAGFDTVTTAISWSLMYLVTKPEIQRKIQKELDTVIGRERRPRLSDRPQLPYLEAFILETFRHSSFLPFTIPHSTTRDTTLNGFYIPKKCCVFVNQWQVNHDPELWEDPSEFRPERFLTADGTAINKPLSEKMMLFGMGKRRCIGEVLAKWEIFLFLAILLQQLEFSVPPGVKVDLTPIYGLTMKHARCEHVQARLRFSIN
Nature of the data set: Inhibition of CYP1A2 (unknown origin) assessed as remaining enzyme activity at 10 uM. It is filed as ADME. Particulars: read-out: Activity.
`COc1ccc(-c2cc(-c3ccc4c(c3)CN(C(C)C)C4=O)on2)cn1`: the activity at 10 µM was determined as 90.7%.
As to `CC(C)N1Cc2cc(-c3cc(-c4ccc(Cl)nc4)no3)ccc2C1=O`, the activity at 10 µM was found to be 92.6%.
Consider `Cc1c(-c2ccc(F)cc2F)noc1-c1ccc2c(c1)CN(C(C)C)C2=O`, for which the activity at 10 µM turned out to be 89.6%.
Same read-out and setting: with `CC(C)N1C(=O)c2ccc(-c3cc(-c4ccccc4F)no3)cc21` the figure was 98.7%; with `CC(C)N1Cc2cc(-c3cc(-c4ccccc4F)no3)ccc2C1=O`, 42.5%.

Another data set addresses Metabotropic glutamate receptor 5 (Homo sapiens) (UniProt P41594). Briefly: Antagonist activity against human mGluR5 expressed in HEK cells assessed as inhibition of L-glutamate-induced intracellular calcium levels at 1 uM after 18 hrs. It is filed as functional, cell-based. Particulars: HEK293.
On to `COc1ccc(-c2cc(-c3ccc4c(c3)CN(C(C)C)C4=O)on2)cn1`, for which the inhibition came to 5.29%.
Same read-out and setting: with `CC(C)N1Cc2cc(-c3cc(-c4ccc(Cl)nc4)no3)ccc2C1=O` the figure was 22.7%; with `Cc1c(-c2ccc(F)cc2F)noc1-c1ccc2c(c1)CN(C(C)C)C2=O`, 7.95%; with `Cc1c(-c2ccc(Cl)cc2)noc1-c1ccc2c(c1)N(C(C)C)C2=O`, 9.46%.
Same read-out and setting: with `Cc1ccc(-c2cc(-c3ccc4c(c3)CN(C(C)C)C4=O)on2)cn1` the figure was 14%.
The same measure, in the same setting: with `CC(C)N1C(=O)c2ccc(-c3cc(-c4ccccc4F)no3)cc21` the figure was 14.9%.
On to `CC(C)N1Cc2cc(-c3cc(-c4ccccc4F)no3)ccc2C1=O`, for which the inhibition worked out at 21.9%.
